Experimental data as given in the supplement of paper PMC9663587.

Legend:
Neratinib/HKI272 = compound: CCOc1cc2ncc(C#N)c(Nc3ccc(OCc4ccccn4)c(Cl)c3)c2cc1NC(=O)/C=C/CN(C)C [Neratinib/HKI272]; assay: increase in dead-cell fraction, 72 h; higher = more death;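 further: breast cancer cell lines in 384-well plates, stained with Hoechst plus LIVE/DEAD far red dye and imaged, cells above an LDR intensity threshold counted dead, Hoechst-negative corpses included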
[1] = compound: CCN1CCN(Cc2ccc(Nc3ncc(F)c(-c4cc(F)c5nc(C)n(C(C)C)c5c4)n3)nc2)CC1; assay: as above
BSJ-03-123 = compound: CC(=O)c1c(C)c2cnc(Nc3ccc(N4CCN(CCOCCOCCOCCNC(=O)COc5cccc6c5C(=O)N(C5CCC(=O)NC5=O)C6=O)CC4)cn3)nc2n(C2CCCC2)c1=O [BSJ-03-123]; assay: as above
Flavopiridol = compound: CN1CC[C@H](c2c(O)cc(O)c3c(=O)cc(-c4ccccc4Cl)oc23)[C@H](O)C1 [Flavopiridol]; assay: as above
THZ531 = compound: CN(C)C/C=C/C(=O)Nc1ccc(C(=O)N2CCC[C@@H](Nc3ncc(Cl)c(-c4c[nH]c5ccccc45)n3)C2)cc1 [THZ531]; assay: as above
THZ1 = compound: CN(C)C/C=C/C(=O)Nc1ccc(C(=O)Nc2cccc(Nc3ncc(Cl)c(-c4c[nH]c5ccccc45)n3)c2)cc1 [THZ1]; assay: as above
LEE011/Ribociclib = compound: CN(C)C(=O)c1cc2cnc(Nc3ccc(N4CCNCC4)cn3)nc2n1C1CCCC1 [LEE011/Ribociclib]; assay: as above
YKL-5-124 = compound: C=CC(=O)Nc1ccc(C(=O)Nc2[nH]nc3c2CN(C(=O)N[C@H](CN(C)C)c2ccccc2)C3(C)C)cc1 [YKL-5-124]; assay: as above
[2] = compound: CC(=O)c1c(C)c2cnc(Nc3ccc(N4CCNCC4)cn3)nc2n(C2CCCC2)c1=O; assay: as above
[3] = compound: CCc1cnn2c(NCc3ccc[n+]([O-])c3)cc(N3CCCC[C@H]3CCO)nc12; assay: as above
[4] = compound: CCCCOc1c(C(=O)c2c(F)cc(C)cc2F)c[nH]c2nncc1-2
Saracatinib/AZD0530 = compound: CN1CCN(CCOc2cc(OC3CCOCC3)c3c(Nc4c(Cl)ccc5c4OCO5)ncnc3c2)CC1 [Saracatinib/AZD0530]
Luminespib/NVP-AUY922 = compound: CCNC(=O)c1noc(-c2cc(C(C)C)c(O)cc2O)c1-c1ccc(CN2CCOCC2)cc1 [Luminespib/NVP-AUY922]
BSJ-01-175 = compound: CN(C)C/C=C/C(=O)Nc1ccc(O[C@@H]2CCC[C@@H](Nc3ncc(Cl)c(-c4c[nH]c5ccccc45)n3)C2)cc1 [BSJ-01-175]
THZ-P1-2 = compound: CN(C)C/C=C/C(=O)NC1=CC=C(C=C1)C(=O)NC2=CC=CC(=C2)NC3=NC=NC(=C3)C4=CNC5=CC=CC=C54 [THZ-P1-2]
Ceritinib/LDK378 = compound: Cc1cc(Nc2ncc(Cl)c(Nc3ccccc3S(=O)(=O)C(C)C)n2)c(OC(C)C)cc1C1CCNCC1 [Ceritinib/LDK378]
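Wherever GR50, 72 h is given: breast cancer and non-malignant breast epithelial cell lines, Deep Dye Drop or Dye Drop imaging, nine half-log doses, GR normalized to time-zero plates and DMSO-only controls.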

For HCC1395, the “increase in dead-cell fraction” value (Neratinib/HKI272; 0.0003162 µM) was 0.0064, the “increase in dead-cell fraction” value (Neratinib/HKI272; 0.001 µM) was -0.004 and the “increase in dead-cell fraction” value (Neratinib/HKI272; 0.003162 µM) was 0.0024. The “increase in dead-cell fraction” value (Neratinib/HKI272; 0.01 µM) was 0.0027, the “increase in dead-cell fraction” value (Neratinib/HKI272; 0.03162 µM) was -0.0039 and the “increase in dead-cell fraction” value (Neratinib/HKI272; 0.1 µM) was 0.0013. For the same cell line, the “increase in dead-cell fraction” value (Neratinib/HKI272; 0.3162 µM) was 0.0091, the “increase in dead-cell fraction” value (Neratinib/HKI272; 1 µM) was 0.012 and the “increase in dead-cell fraction” value (Neratinib/HKI272; 3.162 µM) was 0.141. For the same cell line, the “increase in dead-cell fraction” value ([1]; 0.001 µM) was 0.0055, the “increase in dead-cell fraction” value ([1]; 0.003162 µM) was -0.0031 and the “increase in dead-cell fraction” value ([1]; 0.01 µM) was 0.0123. The “increase in dead-cell fraction” value ([1]; 0.03162 µM) was 0.0119, the “increase in dead-cell fraction” value ([1]; 0.1 µM) was 0.0163 and the “increase in dead-cell fraction” value ([1]; 0.3162 µM) was 0.0184. The “increase in dead-cell fraction” value ([1]; 1 µM) was 0.0343, the “increase in dead-cell fraction” value ([1]; 3.162 µM) was 0.0632 and the “increase in dead-cell fraction” value ([1]; 10 µM) was 0.447. The “increase in dead-cell fraction” value (BSJ-03-123; 0.001 µM) was 0.0154, the “increase in dead-cell fraction” value (BSJ-03-123; 0.003162 µM) was 0.0016 and the “increase in dead-cell fraction” value (BSJ-03-123; 0.01 µM) was 0.0046. The “increase in dead-cell fraction” value (BSJ-03-123; 0.03162 µM) was 0.0156, the “increase in dead-cell fraction” value (BSJ-03-123; 0.1 µM) was 0.0199 and the “increase in dead-cell fraction” value (BSJ-03-123; 0.3162 µM) was 0.0113. For the same cell line, the “increase in dead-cell fraction” value (BSJ-03-123; 1 µM) was 0.0316, the “increase in dead-cell fraction” value (BSJ-03-123; 3.162 µM) was 0.0201 and the “increase in dead-cell fraction” value (BSJ-03-123; 10 µM) was 0.13. For the same cell line, the “increase in dead-cell fraction” value (Flavopiridol; 0.0001 µM) was -0.0165, the “increase in dead-cell fraction” value (Flavopiridol; 0.0003162 µM) was 0.0036 and the “increase in dead-cell fraction” value (Flavopiridol; 0.001 µM) was -0.001. The “increase in dead-cell fraction” value (Flavopiridol; 0.003162 µM) was 0.0024, the “increase in dead-cell fraction” value (Flavopiridol; 0.01 µM) was 0.0179 and the “increase in dead-cell fraction” value (Flavopiridol; 0.03162 µM) was -0.0053. The “increase in dead-cell fraction” value (Flavopiridol; 0.1 µM) was -0.0066, the “increase in dead-cell fraction” value (Flavopiridol; 0.3162 µM) was 0.0777 and the “increase in dead-cell fraction” value (Flavopiridol; 1 µM) was 0.306. For the same cell line, the “increase in dead-cell fraction” value (THZ531; 0.0001 µM) was 0.0083, the “increase in dead-cell fraction” value (THZ531; 0.0003162 µM) was -0.0121 and the “increase in dead-cell fraction” value (THZ531; 0.001 µM) was 0.0071. For the same cell line, the “increase in dead-cell fraction” value (THZ531; 0.003162 µM) was 0.0027, the “increase in dead-cell fraction” value (THZ531; 0.01 µM) was -0.0161 and the “increase in dead-cell fraction” value (THZ531; 0.03162 µM) was -0.0019. For the same cell line, the “increase in dead-cell fraction” value (THZ531; 0.1 µM) was 0.0618, the “increase in dead-cell fraction” value (THZ531; 0.3162 µM) was 0.113 and the “increase in dead-cell fraction” value (THZ531; 1 µM) was 0.242. The “increase in dead-cell fraction” value (THZ1; 0.0001 µM) was -0.017, the “increase in dead-cell fraction” value (THZ1; 0.0003162 µM) was -0.002 and the “increase in dead-cell fraction” value (THZ1; 0.001 µM) was -0.0182. The “increase in dead-cell fraction” value (THZ1; 0.003162 µM) was 0.0057, the “increase in dead-cell fraction” value (THZ1; 0.01 µM) was 0.0001 and the “increase in dead-cell fraction” value (THZ1; 0.03162 µM) was 0.0489. For the same cell line, the “increase in dead-cell fraction” value (THZ1; 0.1 µM) was 0.193, the “increase in dead-cell fraction” value (THZ1; 0.3162 µM) was 0.25 and the “increase in dead-cell fraction” value (THZ1; 1 µM) was 0.469. The “increase in dead-cell fraction” value (LEE011/Ribociclib; 0.001 µM) was -0.0137, the “increase in dead-cell fraction” value (LEE011/Ribociclib; 0.003162 µM) was 0.0153 and the “increase in dead-cell fraction” value (LEE011/Ribociclib; 0.01 µM) was 0.0143. For the same cell line, the “increase in dead-cell fraction” value (LEE011/Ribociclib; 0.03162 µM) was 0.0111, the “increase in dead-cell fraction” value (LEE011/Ribociclib; 0.1 µM) was 0.0234 and the “increase in dead-cell fraction” value (LEE011/Ribociclib; 0.3162 µM) was 0.0259. The “increase in dead-cell fraction” value (LEE011/Ribociclib; 1 µM) was 0.0472, the “increase in dead-cell fraction” value (LEE011/Ribociclib; 3.162 µM) was 0.0158 and the “increase in dead-cell fraction” value (LEE011/Ribociclib; 10 µM) was 0.0578. The “increase in dead-cell fraction” value (YKL-5-124; 0.001 µM) was 0.0251, the “increase in dead-cell fraction” value (YKL-5-124; 0.003162 µM) was 0.0285 and the “increase in dead-cell fraction” value (YKL-5-124; 0.01 µM) was 0.0648. For the same cell line, the “increase in dead-cell fraction” value (YKL-5-124; 0.03162 µM) was 0.0466, the “increase in dead-cell fraction” value (YKL-5-124; 0.1 µM) was 0.0638 and the “increase in dead-cell fraction” value (YKL-5-124; 0.3162 µM) was 0.0762. The “increase in dead-cell fraction” value (YKL-5-124; 1 µM) was 0.0835, the “increase in dead-cell fraction” value (YKL-5-124; 3.162 µM) was 0.0876 and the “increase in dead-cell fraction” value (YKL-5-124; 10 µM) was 0.152. For the same cell line, the “increase in dead-cell fraction” value ([2]; 0.0003162 µM) was -0.0002, the “increase in dead-cell fraction” value ([2]; 0.001 µM) was -0.0025 and the “increase in dead-cell fraction” value ([2]; 0.003162 µM) was -0.0071. The “increase in dead-cell fraction” value ([2]; 0.01 µM) was 0.0129, the “increase in dead-cell fraction” value ([2]; 0.03162 µM) was 0.0232 and the “increase in dead-cell fraction” value ([2]; 0.1 µM) was 0.0283. For the same cell line, the “increase in dead-cell fraction” value ([2]; 0.3162 µM) was 0.0367, the “increase in dead-cell fraction” value ([2]; 1 µM) was 0.0326 and the “increase in dead-cell fraction” value ([2]; 3.162 µM) was 0.0325. The “increase in dead-cell fraction” value ([3]; 0.0001 µM) was 0.005, the “increase in dead-cell fraction” value ([3]; 0.0003162 µM) was -0.0006 and the “increase in dead-cell fraction” value ([3]; 0.001 µM) was -0.004. The “increase in dead-cell fraction” value ([3]; 0.003162 µM) was 0.0091, the “increase in dead-cell fraction” value ([3]; 0.01 µM) was 0.0238 and the “increase in dead-cell fraction” value ([3]; 0.03162 µM) was 0.263. For the same cell line, the “increase in dead-cell fraction” value ([3]; 0.1 µM) was 0.368, the “increase in dead-cell fraction” value ([3]; 0.3162 µM) was 0.378 and the “increase in dead-cell fraction” value ([3]; 1 µM) was 0.387. For the same cell line, the “GR50, 72 h” value [4] was 0.00575 µM, the “GR50, 72 h” value (Saracatinib/AZD0530) was 3.76 µM and the “GR50, 72 h” value (Luminespib/NVP-AUY922) was 0.005 µM. For the same cell line, the “GR50, 72 h” value (BSJ-01-175) was 0.015 µM, the “GR50, 72 h” value (THZ-P1-2) was 2.89 µM and the “GR50, 72 h” value (Ceritinib/LDK378) was 1.6 µM.
